According to ChEMBL document CHEMBL5724696, “Autophagy assay results for EUbOPEN Chemogenomics Library” (2024):
Where “and” joins values, the source holds several entries; their conditions need not be identical. Equal entries are not always repeated.

Tests used:
Assay type in all cases: functional, Homo sapiens
U2OS [1] = assay: (§1) Here: values are normalized to the negative (DMSO; defined as 0% autophagy induction) and positive (250nM Torin1; mTOR inhibitor; defined as maximal inducer of autophagy = 100%) control compounds and represented as % of autophagy induction. […] The impact of autophagy induction on cells is complex and depends on the affected target. As such, the magnitude of a phenotype may not be equally mirrored in the %-value of autophagy induction and vice versa. The dynamics of the induction may indicate the mode of activation: e.g. activation via phosphorylation or a signaling cascade may occur fast, while activation via transcription factors may take considerably longer. […] Of note, treatment concentrations may be sub-optimal for specific compounds, leading to false negative annotations.; settings: Culturing Media DMEM, 1 % Penicillin/Streptomycin, 10% Fetal bovin serum Add-On: No, Screening Media Control DMEM, Screening Media Samples DMEM
TERT-RPE1 = assay: as §1; settings: Culturing Media DMEM/F12 (1:1), 1 % Penicillin/Streptomycin, 10% Fetal bovin serum Add-On: No, Screening Media Control DMEM/F12 (1:1), Screening Media Samples DMEM/F12 (1:1)
U2OS [2] = assay: as §1; settings: Culturing Media DMEM, 1 % Penicillin/Streptomycin, 10% Fetal bovin serum Add-On: No, Screening Media Control DMEM, Screening Media Samples DMEM; remark: listed apart in the source
[3] = Compound Concentration 0.5 uM, Timepoint 12 hours
[4] = Compound Concentration 0.5 uM, Timepoint 24 hours
[5] = Compound Concentration 0.5 uM, Timepoint 36 hours
[6] = Compound Concentration 0.5 uM, Timepoint 60 hours
[7] = Compound Concentration 2 uM, Timepoint 12 hours
[8] = Compound Concentration 2 uM, Timepoint 24 hours
[9] = Compound Concentration 2 uM, Timepoint 36 hours
[10] = Compound Concentration 2 uM, Timepoint 60 hours
[11] = Compound Concentration 10 uM, Timepoint 12 hours
[12] = Compound Concentration 10 uM, Timepoint 24 hours
[13] = Compound Concentration 10 uM, Timepoint 36 hours
[14] = Compound Concentration 10 uM, Timepoint 60 hours

Structure (SMILES) | autophagy induction (U2OS [1]; [3]) [%] | autophagy induction (U2OS [1]; [4]) [%] | autophagy induction (U2OS [1]; [5]) [%] | autophagy induction (U2OS [1]; [6]) [%] | autophagy induction (U2OS [1]; [7]) [%] | autophagy induction (U2OS [1]; [8]) [%] | autophagy induction (U2OS [1]; [9]) [%] | autophagy induction (U2OS [1]; [10]) [%] | autophagy induction (U2OS [1]; [11]) [%] | autophagy induction (U2OS [1]; [12]) [%] | autophagy induction (U2OS [1]; [13]) [%] | autophagy induction (U2OS [1]; [14]) [%] | autophagy induction (U2OS [2]; [3]) [%] | autophagy induction (U2OS [2]; [4]) [%] | autophagy induction (U2OS [2]; [5]) [%] | autophagy induction (U2OS [2]; [6]) [%] | autophagy induction (U2OS [2]; [7]) [%] | autophagy induction (U2OS [2]; [8]) [%] | autophagy induction (U2OS [2]; [9]) [%] | autophagy induction (U2OS [2]; [10]) [%] | other results
c1cc(CN2CCCNCCNCCCNCC2)ccc1CN1CCCNCCNCCCNCC1 [PLERIXAFOR] | 9.361 | 4.086 | 3.942 | -10.4654 | -10.5746 | -17.2139 | -19.8311 | -28.2789 | -19.8514 | -21.1534 | -25.1466 | -33.2742 | 1.944 | -0.47 | 1403.21 | -0.2952 | -1.895 | -4.5042 | -61.4276 | -2.96 | autophagy induction (TERT-RPE1; Compound Concentration 0.5 uM, Timepoint 12 hours, 12 h, 0.5 µM): -4.475% and 7.798%; autophagy induction (TERT-RPE1; Compound Concentration 0.5 uM, Timepoint 24 hours, 24 h, 0.5 µM): -3.816% and 9.011%; autophagy induction (TERT-RPE1; Compound Concentration 0.5 uM, Timepoint 36 hours, 36 h, 0.5 µM): -5.185% and 14.9232%; autophagy induction (TERT-RPE1; Compound Concentration 0.5 uM, Timepoint 60 hours, 60 h, 0.5 µM): -8.266% and 14.0932%; autophagy induction (TERT-RPE1; Compound Concentration 2 uM, Timepoint 12 hours, 12 h, 2 µM): -1.002% and 11.2768%; autophagy induction (TERT-RPE1; Compound Concentration 2 uM, Timepoint 24 hours, 24 h, 2 µM): -1.015% and 15.5767%; autophagy induction (TERT-RPE1; Compound Concentration 2 uM, Timepoint 36 hours, 36 h, 2 µM): -0.9806% and 19.0771%; autophagy induction (TERT-RPE1; Compound Concentration 2 uM, Timepoint 60 hours, 60 h, 2 µM): -1.796% and 21.8048%; autophagy induction (TERT-RPE1; Compound Concentration 10 uM, Timepoint 12 hours, 12 h, 10 µM): -0.2124% and 10.1362%; autophagy induction (U2OS [2]; [11]): -9.041%; autophagy induction (U2OS [2]; [12]): -7.066%; autophagy induction (U2OS [2]; [13]): -62.672%; autophagy induction (U2OS [2]; [14]): -3.919%
N#Cc1c[nH]c2c(C(=O)N3CCN(CCc4ccc(F)cc4)CC3)cccc12 [PRUVANSERIN] | -6.178 | -8.725 | -11.774 | -11.1897 | -0.7991 | -1.585 | -5.754 | -9.463 | -2.951 | 1.579 | -6.9473 | -6.12 | -2.928 | -3.235 | -1.344 | -1.7078 | -0.5957 | -2.183 | -3.588 | -2.524 | autophagy induction (TERT-RPE1; [3]): -0.9197%; autophagy induction (TERT-RPE1; [4]): -7.874%; autophagy induction (TERT-RPE1; [5]): -10.0141%; autophagy induction (TERT-RPE1; [6]): -14.8375%; autophagy induction (TERT-RPE1; [7]): -6.1985%; autophagy induction (TERT-RPE1; [8]): -7.924%; autophagy induction (TERT-RPE1; [9]): -9.7251%; autophagy induction (TERT-RPE1; [10]): -15.807%; autophagy induction (TERT-RPE1; [11]): -0.3174%; autophagy induction (TERT-RPE1; [12]): -4.163%; autophagy induction (TERT-RPE1; [13]): -3.571%; autophagy induction (TERT-RPE1; [14]): -3.5258%; autophagy induction (U2OS [2]; [11]): 4.878%; autophagy induction (U2OS [2]; [12]): -0.06233%; autophagy induction (U2OS [2]; [13]): -0.9102%; autophagy induction (U2OS [2]; [14]): -2.945%
